# Legend:
# [1] = biological target: T1, rat brain monoglyceride lipase (MGL) (Rattus norvegicus, UniProt Q8R431); experiment: Cytosol MGL activity, 2-mono-oleoyl-glycerol as substrate
# T1 sequence (Q8R431 1-303): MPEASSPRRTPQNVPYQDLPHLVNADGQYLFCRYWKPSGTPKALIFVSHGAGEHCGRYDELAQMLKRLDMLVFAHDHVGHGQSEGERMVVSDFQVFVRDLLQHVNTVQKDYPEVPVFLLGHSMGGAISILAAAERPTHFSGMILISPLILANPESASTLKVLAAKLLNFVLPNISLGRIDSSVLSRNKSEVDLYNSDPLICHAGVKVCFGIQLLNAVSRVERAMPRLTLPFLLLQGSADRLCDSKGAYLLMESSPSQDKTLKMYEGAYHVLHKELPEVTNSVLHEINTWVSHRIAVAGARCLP
# Description: (§1) We prepared cell fractions from rat brain homogenates, and assayed membrane FAAH activity and cytosol MGL activity using anandamide [ethanolamine-3H] (American Radiolabeled Chemicals, ARC (St. Louis Mo.), 60 Ci/mmol) and 2-mono-oleoyl-glycerol-[glycerol-1,2,3^−3H] (ARC, St. Louis Mo., 20 Ci/mmol), respectively, as substrates (Dinh, T. Proc. Natl. Acad. Sci. U.S.A. (2002)). We conducted [^3H]anandamide transport assays in human astrocytoma cells (Piomelli, D. et al., Proc. Natl. Acad. Sci. U.S.A., 96, 5802-5807 (1999)); CB1 and CB2 binding assays in rat cerebellar membranes and CB2-overexpressing Chinese hamster ovary cells (Receptor Biology-Perkin Elmer, Wellesley, Mass.), respectively, using [^3H]WIN-55212-2 (NEN-Dupont, Boston, Mass., 40-60 Ci/mmol) as a ligand (Devane, W. A. et al. Science, 258, 1946-1949 (1992)); cholinesterase assays with a commercial kit (Sigma, St. Louis, Mo.), using purified enzymes (electric eel acetylcholinesterase type V-S and horse serum cholinesterase; both from Sigma, St. Louis, Mo.) and following manufacturer's instructions.
# [2] = biological target: horse plasma butyryl cholinesterase (Equus caballus, UniProt P81908); experiment: Cholinesterase assay with commercial kit, purified enzyme
# Sequence of horse plasma butyryl cholinesterase (P81908 whole entry): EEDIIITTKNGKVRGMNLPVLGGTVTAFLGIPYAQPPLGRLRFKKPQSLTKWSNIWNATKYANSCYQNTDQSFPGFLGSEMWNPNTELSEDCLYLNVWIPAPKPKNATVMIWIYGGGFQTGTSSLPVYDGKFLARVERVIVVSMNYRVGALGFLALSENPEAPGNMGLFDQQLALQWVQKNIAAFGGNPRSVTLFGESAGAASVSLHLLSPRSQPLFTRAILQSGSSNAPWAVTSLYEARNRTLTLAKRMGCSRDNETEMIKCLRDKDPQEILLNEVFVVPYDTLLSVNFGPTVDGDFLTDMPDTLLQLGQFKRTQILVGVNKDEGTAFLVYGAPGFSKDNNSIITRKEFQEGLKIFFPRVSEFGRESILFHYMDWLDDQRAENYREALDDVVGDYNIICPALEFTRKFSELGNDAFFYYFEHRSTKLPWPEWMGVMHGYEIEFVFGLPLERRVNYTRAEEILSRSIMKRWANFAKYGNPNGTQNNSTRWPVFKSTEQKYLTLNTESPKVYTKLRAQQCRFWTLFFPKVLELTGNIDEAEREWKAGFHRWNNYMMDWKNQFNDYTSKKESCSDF
# Description: as §1
# CB2 receptor = CB2 receptor (Homo sapiens, UniProt P34972); experiment: CB2 binding assay in CB2-overexpressing Chinese hamster ovary cells, [3H]WIN-55212-2
# Sequence of CB2 receptor (P34972 whole entry): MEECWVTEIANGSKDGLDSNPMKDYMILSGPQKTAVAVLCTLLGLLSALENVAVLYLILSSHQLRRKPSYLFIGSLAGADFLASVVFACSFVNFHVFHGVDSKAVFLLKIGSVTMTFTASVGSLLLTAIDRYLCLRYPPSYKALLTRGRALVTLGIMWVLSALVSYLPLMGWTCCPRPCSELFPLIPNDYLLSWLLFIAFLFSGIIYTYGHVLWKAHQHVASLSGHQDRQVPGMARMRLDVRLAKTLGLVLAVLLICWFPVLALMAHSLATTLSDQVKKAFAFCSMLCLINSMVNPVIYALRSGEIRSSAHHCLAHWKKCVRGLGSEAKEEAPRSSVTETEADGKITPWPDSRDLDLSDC
# Description: as §1
# Elevated zero maze test = assay type: in vivo, rat; conditions: adult rats; i.p. 30 min before test; UCM532 5 and 10 mg kg-1; UCM597 0.05-0.1 mg kg-1
# Description: We dissolved FAAH inhibitors and rimonabant in dimethylsulfoxide (DMSO)/saline (7/3 and 9/1, respectively); we administered FAAH inhibitors by i.p. injection 30 min before tests and rimonabant 30 min before UCM532. The elevated zero maze was comprised of a black Perspex annular platform (105 cm diameter, 10 cm width) elevated to 65 cm above ground level, divided equally into four quadrants (Bickerdike, M. J. et al., Eur. J. Pharmacol., 271, 403-411 (1994); Shepherd, J. K. et al., Psychopharmacology, 116, 56-64 (1994)). […] We placed the rats in a closed quadrant and video recorded them for 5-min periods, thoroughly cleaning the maze between sessions. […] Results are expressed as percent time in open quadrant/total time (percent time open). Results were analyzed by one-way ANOVA followed by Tukey's test. We recorded motor activity of each rat in an Opto-Varimex cage (Columbus Instruments, Columbus, Ohio) linked on-line to a computer and placed in a sound-attenuated room illuminated by a 20-W white light. The amount of time spent in ambulatory activity was analyzed using an Auto-Track software (Columbus Instruments, Columbus, Ohio) as described elsewhere (Ali, M. M. et al., Neurosci. Lett., 284, 57-60 (2000); Wedzony, K. et al., Neuropsychopharmacology, 23, 547-559 (2000)). […] We analyzed data by overall one-way ANOVA followed by Tukey's test for individual between-group comparisons. […]
# rat cortical neurons = experiment: Transport, accumulation and release of non-metabolized [3H]anandamide in cortical neurons; assay type: cell-based
# [3] = Food intake in free-feeding rats; assay type: in vivo, rat; conditions: UCM532 10 mg kg-1 i.p.; UCM597 0.3 mg kg-1 i.p.; data not shown
# Description: We recorded food intake in free-feeding rats by using an automated system (Scipro Inc., New York). Rats were acclimated to the test cages for three days prior to the tests. Each test began at the onset of the dark phase and lasted for 24 hours.
# anandamide transport = experiment: [3H]anandamide transport assay in human astrocytoma cells
# Description: as §1
smiles,measurement,setting,value
"CCCCNC(=O)Oc1ccc(OCc2ccccc2)cc1 [UCM532, n-Butylcarbamic acid 4-benzyloxyphenyl ester]",effect on MGL activity (in words),[1],did not affect
same,MGL SI (maximal concentration tested/IC50 for FAAH),[1]; Table 2,≧100
same,MGL: maximal concentration of FAAH inhibitor tested,[1]; Table 2,>30 µM
same,effect on butyryl cholinesterase activity (in words),[2],did not affect
same,BCh SI (maximal concentration tested/IC50 for FAAH),[2]; Table 2,≧333
same,BCh: maximal concentration of FAAH inhibitor tested,[2]; Table 2,>100 µM
same,effect on binding of a high-affinity ligand to CB2 (in words),CB2 receptor,no effect
same,CB2: maximal concentration of FAAH inhibitor tested,CB2 receptor; Table 2,>300 µM
same,CB2 SI (maximal concentration tested/IC50 for FAAH),CB2 receptor; Table 2,≧1000
same,"percent time open, elevated zero maze",Elevated zero maze test,anxiolytic-like responses
same,accumulation of non-metabolized [3H]anandamide in neurons,"rat cortical neurons; 4-min incubation, UCM532 3 μM, UCM597 10 nM, AM404 10 μM",promote accumulation
same,carrier-mediated uptake of [3H]anandamide,rat cortical neurons; rat cortical neurons,without reducing
same,hyperphagia (increased food intake),[3],no
same,AT: maximal concentration of FAAH inhibitor tested,anandamide transport; Table 2,>300 µM
same,effect on anandamide transport (in words),anandamide transport; human astrocytoma cells,no effect
